Test results reported in patent US7348336B2 (Sanofi-Aventis Deutschland GmbH, priority 2000, dated 2008).
Counter-ions that a name gives are not always drawn. Like-named read-outs stand apart in the source and are kept apart here.

How the values were obtained:
IκBα-kinase complex = molecular target: T1, IκBα-kinase complex (Homo sapiens, UniProt O14920+O15111); assay: IkB-Kinase ELISA; type: biochemical;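 note: substrate phosphopeptide captured on Protein-A plates, detected with Streptavidin-HRP and TMB absorbance at 450 nm, activity read from a synthetic phosphopeptide standard curve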
T1 construct: endogenous in cells; host or cells: HeLa S3 cell extract, S100 fraction; ammonium sulfate precipitation and Superose-6 size exclusion
T1 sequence (O14920 whole entry): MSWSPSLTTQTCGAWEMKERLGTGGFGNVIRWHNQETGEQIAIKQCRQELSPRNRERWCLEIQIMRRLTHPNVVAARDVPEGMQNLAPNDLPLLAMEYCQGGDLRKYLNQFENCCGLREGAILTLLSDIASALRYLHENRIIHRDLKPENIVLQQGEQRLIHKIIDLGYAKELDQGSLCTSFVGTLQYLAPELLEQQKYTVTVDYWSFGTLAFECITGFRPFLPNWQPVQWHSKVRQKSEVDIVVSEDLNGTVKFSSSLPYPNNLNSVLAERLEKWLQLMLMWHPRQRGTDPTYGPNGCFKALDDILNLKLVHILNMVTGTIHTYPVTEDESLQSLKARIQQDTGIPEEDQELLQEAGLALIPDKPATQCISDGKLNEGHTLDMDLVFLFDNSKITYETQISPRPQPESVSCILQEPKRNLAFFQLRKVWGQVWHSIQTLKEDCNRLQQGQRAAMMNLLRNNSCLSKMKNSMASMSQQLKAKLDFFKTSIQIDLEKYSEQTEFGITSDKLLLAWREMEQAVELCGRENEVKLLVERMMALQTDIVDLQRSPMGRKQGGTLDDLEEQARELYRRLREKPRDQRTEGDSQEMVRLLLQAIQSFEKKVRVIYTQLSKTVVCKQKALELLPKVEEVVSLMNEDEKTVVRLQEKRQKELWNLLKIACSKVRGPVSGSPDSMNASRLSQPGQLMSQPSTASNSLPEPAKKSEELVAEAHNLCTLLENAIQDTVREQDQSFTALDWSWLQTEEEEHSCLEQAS
T1 sequence (O15111 whole entry): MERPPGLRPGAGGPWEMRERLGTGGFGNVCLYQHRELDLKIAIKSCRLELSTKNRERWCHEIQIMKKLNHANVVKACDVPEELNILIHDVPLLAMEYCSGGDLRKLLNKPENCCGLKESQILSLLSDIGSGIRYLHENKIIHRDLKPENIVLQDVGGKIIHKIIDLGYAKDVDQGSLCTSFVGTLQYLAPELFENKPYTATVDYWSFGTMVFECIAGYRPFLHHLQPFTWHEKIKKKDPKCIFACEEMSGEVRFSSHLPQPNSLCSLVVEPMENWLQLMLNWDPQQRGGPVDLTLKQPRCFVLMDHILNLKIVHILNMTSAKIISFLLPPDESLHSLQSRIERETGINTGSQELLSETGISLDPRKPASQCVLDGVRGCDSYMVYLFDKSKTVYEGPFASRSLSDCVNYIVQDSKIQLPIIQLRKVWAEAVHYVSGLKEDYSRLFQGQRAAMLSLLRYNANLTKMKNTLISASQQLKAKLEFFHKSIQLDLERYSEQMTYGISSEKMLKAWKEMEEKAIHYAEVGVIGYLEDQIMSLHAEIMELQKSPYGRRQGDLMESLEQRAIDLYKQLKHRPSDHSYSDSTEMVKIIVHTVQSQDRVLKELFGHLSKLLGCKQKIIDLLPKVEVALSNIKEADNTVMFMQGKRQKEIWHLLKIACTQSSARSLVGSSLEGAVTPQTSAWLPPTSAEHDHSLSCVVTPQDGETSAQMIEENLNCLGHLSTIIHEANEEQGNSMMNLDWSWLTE
T1 sequence (Q9Y6K9 whole entry partner): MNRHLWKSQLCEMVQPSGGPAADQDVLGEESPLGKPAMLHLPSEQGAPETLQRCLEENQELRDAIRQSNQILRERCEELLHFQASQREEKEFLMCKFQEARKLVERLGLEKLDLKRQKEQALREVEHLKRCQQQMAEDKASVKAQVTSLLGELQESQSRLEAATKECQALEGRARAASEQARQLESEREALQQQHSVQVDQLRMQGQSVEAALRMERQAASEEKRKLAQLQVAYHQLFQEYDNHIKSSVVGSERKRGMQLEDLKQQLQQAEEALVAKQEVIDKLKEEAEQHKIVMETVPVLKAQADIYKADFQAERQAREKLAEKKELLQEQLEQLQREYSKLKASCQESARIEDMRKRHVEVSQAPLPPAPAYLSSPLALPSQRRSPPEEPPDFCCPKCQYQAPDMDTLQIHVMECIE

[1] = system: cardiac allograft (BALB/c->C57BL/6 or B6/129); assay: Mouse heterotopic cardiac transplant model; type: in vivo; conditions: oral, 25 mg/kg/day for 14 days, starting at transplantation; mean±SD
Description: Mouse Heterotopic Cardiac Transplant Model
In the mouse heterotopic cardiac transplant model across full histocompatibility barriers (BALB/c->C57BL/6 or B6/129), graft survival is typically limited to 7.3±0.4 days (mean±SD, n0 allografts) (see for example in Hancock W W, Sayegh M H, Zheng X G, Peach R, Linsley P S, Turka L A. Costimulatory function and expression of CD40-ligand, CD80 and CD86 or in vascularized murine cardiac allograft rejection. Proc Natl Acad Sci (USA) 93, 1996, 13967-13972; and Hancock W W, Buelow R, Sayegh M H, Turka L A. Antibody-induced transplant arteriosclerosis is prevented by graft expression of anti-oxidant and anti-apoptotic genes. Nature Med 4, 1998, 1392-1396).
The effects of oral administration of the compounds according to examples 49 and 60 were tested using 25 mg/kg/day for 14 days, starting at transplantation in said animal model. Whereas grafts in animals receiving the carrier, methyl-cellulose, rejected by 7 days (6.7±0.8), grafts in compound 49-treated mice survived around 15 days (15.3±0.6), and grafts in those given compound 60 survived for 20 days (20±1). Current immunosuppressive therapies used in transplantation have limited efficacy and/or considerable toxicity.

[2] = activated IκBα kinase complex from HeLa S3 cell extracts, ELISA, read-out: IkB-kinase IC50

| SMILES | IC50 (IκBα-kinase complex; [2]) [nM] | IC50 (IκBα-kinase complex; IkB-kinase, unit inferred, read-out: IC50) [nM] | graft survival [1] [days] |
| --- | --- | --- | --- |
| O=C(Nc1cc(Cl)cc2c1[nH]c1cnccc12)c1ccc(F)cc1 [Example 49, trifluoroacetate] | 220 |  | 15.3 ± 0.6 |
| COc1c(Cl)cc2c([nH]c3cnccc32)c1NC(=O)c1ccc(Cl)nc1 [Example 118] | 120 |  |  |
| COc1c(Cl)cc2c([nH]c3cnccc32)c1NC(=O)c1ccno1 [Example 119] | 600 |  |  |

More lines, main results first:

| IC50 (IκBα-kinase complex; [2]) [nM] | IC50 (IκBα-kinase complex; IkB-kinase, unit inferred, read-out: IC50) [nM] | SMILES | graft survival [1] [days] |
| --- | --- | --- | --- |
| 400 |  | COc1c(Cl)cc2c([nH]c3cnccc32)c1NC(=O)c1ccc(F)c(F)c1 [Example 120] |  |
|  | 1700 | Nc1ccc(C(=O)Nc2cc(Cl)cc3c2[nH]c2cnccc23)cn1 [Example 121] |  |
